pEC50: −log10 of the molar value. Where two headings read alike, the source gives them in different places. Marks after values point to notes of the source that are not given here.
Molecular target: T1, F508delCFTR (Homo sapiens, UniProt P13569, DEL508-508)
T1 construct: expressed in transfected cells; host or cells: CFBE41o- human lung derived epithelial cells (CFBE41o-F508delCFTR-HRP), doxycycline-inducible
Experiment: Cell Surface Expression-Horse Radish Peroxidase (CSE-HRP) Assay;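 for EC50 (with co-corrector): co-corrector chromenyl benzoic acid corrector at 2 or 3 µM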
Format: cell-based
Conditions: for Maximum % activity (with co-corrector) / Emax: maximum at any tested concentration; for Emax: read-out: Maximum % activity (without co-corrector)
Procedure: A cellular assay for measuring the F508delCFTR cell surface expression after correction with test compounds either without or with a co-corrector (2 μM of 3-[(2R,4R)-4-({[1-(2,2-difluoro-1,3-benzodioxol-5-yl)cyclopropyl]carbonyl}amino)-7-methoxy-3,4-dihydro-2H-chromen-2-yl]benzoic acid), was developed in human lung derived epithelial cell line (CFBE4lo−) (Veit G et al, (2012) Mol Biol Cell. 23(21): 4188-4202). The development was achieved by expressing the F508delCFTR mutation along with a horseradish peroxidase (HRP) in the fourth exofacial loop, and then measuring the HRP activity using luminescence readout from these cells, CFBE410-F508delCFTR-HRP, that were incubated overnight with the test corrector compounds, either without or with the co-corrector. For this primary assay, the CFBE410-F508delCFTR-HRP cells were plated in 384-well plates (Greiner Bio-one; Cat 781080) at 4,000 cells/well along with 0.5 μg/mL doxycycline to induce the F508delCFTR-HRP expression and further incubated at 37° C., 5% CO2 for 68-72 hours. The test compounds were then added either without or with a co-corrector at the required concentrations and further incubated for 18-24 hours at 33° C. The highest concentration tested was 20 μM or 30 μM (GI-1 to GIII-36) with an 8-point concentration response curve using a 3-fold dilution in both the test compound without or with the co-corrector. Three replicate plates were run to determine one EC50. All plates contained negative controls (dimethyl sulfoxide, DMSO) and positive control (2 μM or 3 μM (GI-1 to GIII-36) of 3-[(2R,4R)-4-({[1-(2,2-difluoro-1,3-benzodioxol-5-yl)cyclopropyl]carbonyl}amino)-7-methoxy-3,4-dihydro-2H-chromen-2-yl]benzoic acid) as well as on-plate concentration response of the positive control. Post incubation, the plates were washed 5× times with Dulbecco's phosphate buffered saline (DPBS), followed by the addition of the HRP substrate, luminol (50 4), and measuring the HRP activity using luminescence readout on EnVision® Multilabel Plate Reader (Perkin Elmer; product number 2104-0010). The raw counts from the experiment were analyzed using Accelrys® Assay Explorer v3.3.
Z′ greater than 0.5 was used as passing quality control criteria for the plates.
The Z′ is defined as: 1−[3*SDPositve Control+3*SDNegative Control/Absolute(MeanPositive Control−MeanNegative Control)] wherein “SD” is standard deviation.
The % activity measured at each of the 8 test concentrations of the test compound added either without or with a co-corrector (2 μM or 3 μM (GI-1 to GIII-36) of 3-[(2R,4R)-4-({[1-(2,2-difluoro-1,3-benzodioxol-5-yl)cyclopropyl]carbonyl}amino)-7-methoxy-3,4-dihydro-2H-chromen-2-yl]benzoic acid) was normalized to the on-plate positive control using the following formulae: % activity (Test compound without co-corrector)=[(test compound without co-corrector response DMSO response)/(positive control response DMSO response)]*100 % activity (Test compound with co-corrector)=[(test compound with co-corrector response DMSO response)/(positive control response DMSO response)]*100
The maximum % activity achieved for the test compound either without or with a co-corrector at any tested concentration is presented in Table 6 along with the respective EC50's calculated using the following general sigmoidal curve with variable Hill slope equation (described as Model 42 in the Accelrys® Assay Explorer v3.3 software): y=(a−d)/(1+(x/c)b)+d
General sigmoidal curve with concentration, response, top, bottom, EC50 and Hill slope. This model describes a sigmoidal curve with an adjustable baseline, a. The equation can be used to fit curves where response is either increasing or decreasing with respect to the independent variable, “x”.
“x” is a concentration of drug under test.
“a” is the maximum response, and “d” is the minimum response
“c” is the inflection point (EGO for the curve. That is, “y” is halfway between the lower and upper asymptotes when x=c.
“b” is the slope-factor or Hill coefficient. […]

[1] = test compound alone, without co-corrector, read-out: EC50 (without co-corrector)
[2] = with co-corrector, read-out: EC50 (with co-corrector)
[3] = test compound with co-corrector
[4] = test compound with co-corrector, read-out: EC50 (with co-corrector)
[5] = test compound without co-corrector
[6] = test compound without co-corrector, read-out: EC50 (without co-corrector)

T1 sequence (P13569 with tags, fused parts or gaps DEL508-508): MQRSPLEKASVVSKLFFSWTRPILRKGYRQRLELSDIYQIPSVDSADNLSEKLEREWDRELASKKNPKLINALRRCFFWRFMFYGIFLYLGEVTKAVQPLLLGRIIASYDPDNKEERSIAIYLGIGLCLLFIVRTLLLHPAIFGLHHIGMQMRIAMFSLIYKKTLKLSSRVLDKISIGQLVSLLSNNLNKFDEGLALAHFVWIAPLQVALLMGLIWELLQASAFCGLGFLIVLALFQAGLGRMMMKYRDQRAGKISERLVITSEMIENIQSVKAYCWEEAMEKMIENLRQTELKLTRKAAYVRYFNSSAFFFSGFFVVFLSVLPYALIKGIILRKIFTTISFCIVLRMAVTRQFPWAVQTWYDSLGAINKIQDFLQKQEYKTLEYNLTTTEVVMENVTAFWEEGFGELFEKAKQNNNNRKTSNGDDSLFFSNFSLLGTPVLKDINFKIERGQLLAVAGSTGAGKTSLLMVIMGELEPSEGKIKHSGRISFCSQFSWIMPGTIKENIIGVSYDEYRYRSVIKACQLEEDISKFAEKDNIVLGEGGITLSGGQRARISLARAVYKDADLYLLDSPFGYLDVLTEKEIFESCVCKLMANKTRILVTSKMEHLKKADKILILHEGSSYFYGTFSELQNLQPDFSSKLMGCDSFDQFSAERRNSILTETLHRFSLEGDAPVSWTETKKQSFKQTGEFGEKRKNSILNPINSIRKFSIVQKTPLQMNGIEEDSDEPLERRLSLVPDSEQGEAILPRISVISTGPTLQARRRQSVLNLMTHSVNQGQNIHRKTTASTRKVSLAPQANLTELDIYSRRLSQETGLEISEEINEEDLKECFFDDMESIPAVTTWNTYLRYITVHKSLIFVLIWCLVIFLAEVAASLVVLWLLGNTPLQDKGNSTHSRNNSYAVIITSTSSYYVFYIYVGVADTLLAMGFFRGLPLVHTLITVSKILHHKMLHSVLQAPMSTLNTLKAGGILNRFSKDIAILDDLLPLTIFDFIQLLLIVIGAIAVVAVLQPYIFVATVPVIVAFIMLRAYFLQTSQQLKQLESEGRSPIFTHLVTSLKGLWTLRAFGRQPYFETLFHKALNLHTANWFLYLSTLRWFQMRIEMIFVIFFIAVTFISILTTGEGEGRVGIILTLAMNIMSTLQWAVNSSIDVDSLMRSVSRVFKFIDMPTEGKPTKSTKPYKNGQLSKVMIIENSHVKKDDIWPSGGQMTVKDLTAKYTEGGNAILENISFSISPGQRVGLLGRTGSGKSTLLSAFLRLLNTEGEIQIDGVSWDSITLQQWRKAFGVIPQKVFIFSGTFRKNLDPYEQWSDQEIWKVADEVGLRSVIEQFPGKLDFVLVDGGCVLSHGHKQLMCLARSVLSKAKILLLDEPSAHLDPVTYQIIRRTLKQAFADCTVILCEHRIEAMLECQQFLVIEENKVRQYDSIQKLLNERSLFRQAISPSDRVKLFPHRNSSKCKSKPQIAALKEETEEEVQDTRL

pEC50 [1]	Maximum % activity (with co-corrector) (with co-corrector)	pEC50 [2]	Emax (without co-corrector)	Maximum % activity (with co-corrector) [3]	pEC50 [4]	Emax [5]	pEC50 [6]	EC50 (without co-corrector) [5]	Compound
< 5.00	+ (<150)	< 5.00	< 50%	–	–	–	–	–	CCOc1ccc2nc(S(=O)(=O)NC(=O)C3(c4cccc(Cl)c4)CC3)sc2c1 [Example III-56, 1-(3-chlorophenyl)-N-(6-ethoxy-1,3-benzothiazole-2-sulfonyl)cyclopropane-1-carboxamide]
> 5.52	+++ (≥350)	> 5.52	> 150%	–	–	–	–	–	COc1ncc(C(F)(F)F)cc1C1(C(=O)NS(=O)(=O)c2cccc3ccccc23)CC1 [Example I-8, 1-[2-methoxy-5-(trifluoromethyl)pyridin-3-yl]-N-(naphthalene-1-sulfonyl)cyclopropane-1-carboxamide]
5.00 to 5.52	+++ (≥350)	5.00 to 5.52	> 150%	–	–	–	–	–	COC(C)(C)c1ccc(OC(F)F)c(C2(C(=O)NS(=O)(=O)c3cccc4ncccc34)CC2)c1 [II-108]
–	–	–	–	+++ (≥350)	5.00 to 5.52	> 150%	5.00 to 5.52	–	COCCOc1ncc(C)cc1C1(C(=O)NS(=O)(=O)c2cccc3[nH]ccc23)CC1 [GII-53, N-(1H-indolc-4-sulfonyl)-1-[2-(2-methoxyethoxy)-5-methylpyridin-3-yl]cyclopropane-1-carboxamide]
–	–	–	–	++ (≥150 and <350)	5.00 to 5.52	50 to 150%	5.00 to 5.52	–	O=C(NS(=O)(=O)c1cccc2ccccc12)C1(c2cc(Cl)cnc2C(F)(F)F)CC1 [GII-5, 1-[5-chloro-2-(trifluoromethyl)pyridin-3-yl]-N-(naphthalene-1-sulfonyl)cyclopropane-1-carboxamide]
5.00 to 5.52	+++ (≥350)	> 5.52	> 150%	–	–	–	–	–	COc1ccc(C2CCC2)cc1C1(C(=O)NS(=O)(=O)c2cccc3c2ccn3C)CC1 [Example I-58, 1-(5-cyclobutyl-2-methoxyphenyl)-N-(1-methyl-1H-indole-4-sulfonyl)cyclopropane-1-carboxamide]
> 5.52	+++ (≥350)	> 5.52	> 150%	–	–	–	–	–	CCOc1ccc(C)cc1C1(C(=O)NS(=O)(=O)c2cccc3[nH]c(C)cc23)CC1 [Example I-91, 1-(2-ethoxy-5-methylphenyl)-N-(2-methyl-1H-indole-4-sulfonyl)cyclopropane-1-carboxamide]
< 5.00	++ (≥150 and <350)	5.00 to 5.52	< 50%	–	–	–	–	–	O=C(NS(=O)(=O)c1ccc2c(c1)CCC2)C1(c2ccc(Cl)cc2Cl)CC1 [Example III-8, 1-(2,4-dichlorophenyl)-N-(2,3-dihydro-1H-indene-5-sulfonyl)cyclopropane-1-carboxamide]
–	–	–	–	+++ (≥350)	> 5.52	> 150%	> 5.52	–	CC(C)COc1ccc(OC(C)C)c(C2(C(=O)NS(=O)(=O)c3cccc4[nH]ccc34)CC2)n1 [Example GI-89, N-(1H-indole-4-sulfonyl)-1-{6-(2-methylpropoxy)-3-[(propan-2-yl)oxy]pyridin-2-yl}cyclopropane-1-carboxamide]
< 5.00	+ (<150)	< 5.00	< 50%	–	–	–	–	–	COc1ccc(C2(C(=O)NS(=O)(=O)c3cccc4ccccc34)CCC2)cc1OC [Example III-121, 1-(3,4-dimethoxyphenyl)-N-(naphthalene-1-sulfonyl)cyclobutane-1-carboxamide]
–	–	–	–	+++ (≥350)	5.00 to 5.52	> 150%	–	++^a	COCCOc1ncc(C)cc1C1(C(=O)NS(=O)(=O)c2cccc3nc(C)ccc23)CC1 [GII-50, 1-[2-(2-methoxyethoxy)-5-methylpyridin-3-yl]-N-(2-methylquinoline-5-sulfonyl)cyclopropane-1-carboxamide]

Reference: patent US10829473B2, “Modulators of the cystic fibrosis transmembrane conductance regulator protein and methods of use” (AbbVie Overseas S.Á.R.L., priority 2017, dated 2020)
